Measured values reported in patent publication US20110009387A1, “HISTONE H2AX (HH2AX) BIOMARKER FOR FTI SENSITIVITY” (priority 2007, published 2011).

Key:
sensitive cell lines = assay: Western blot of phospho-histone H2Ax induction; format: cell-based; settings: 72 hours, 1000 nM
Protocol: (§1) The induction of phospho-histone H2Ax was analyzed by comparing the cellular expression levels of the phosphoprotein following exposure of cells to both DMSO (blank) and lonafarnib. The levels were evaluated by western blot. The quantity of induced phosphoprotein was determined qualitatively and by using densitometric analysis of bands on the blot.
(§2) Western blot protein analysis. Cells were lysed in RIPA buffer (50 mM Tris-HCl, 50 mM NaCl, 1% NP40, 0.5% Na-deoxycholate, 1 mM EDTA, 2.5 mM Na3VO4, 20 mM beta-glycerol phosphate, and complete protease inhibitor) and cleared by centrifugation. Protein concentration was determined using BCA reagent. Samples were separated by 14% SDS-PAGE, transferred to polyvinylidene difluoride (PVDF) membrane, immunoblotted and detected by chemiluminescence using the ECL detection reagents. Polyclonal antibodies used: Histone H2Ax and phos-Histone H2Ax (ser-139) (Cell Signaling Technology, Inc.; Danvers, Mass.). Densitometry was analyzed utilizing Quantity One software (Bio-Rad; Hercules, Calif.). Cells that were analyzed for inducation of phospho-H2Ax by western blot analysis were initially plated on plastic and then treated for 72 hours with 1000 nM of the FTI.

MCF-7 = assay: Western blot of phospho-histone H2Ax induction; format: cell-based, human; settings: 72 hours, 1000 nM FTI vs DMSO, undetectable basal level
Protocol: as §1, §2

AsPc1 [1] = assay: Western blot of phospho-histone H2Ax induction; format: cell-based; settings: 72 hours, 1000 nM FTI vs DMSO, densitometry
Protocol: as §1, §2

A2780 [2] = assay: Western blot of phospho-histone H2Ax induction; format: cell-based; settings: 72 hours, 1000 nM FTI vs DMSO, undetectable basal level
Protocol: as §1, §2

Colo205 [3] = assay: Western blot of phospho-histone H2Ax induction; format: cell-based; settings: 72 hours, 1000 nM FTI vs DMSO
Protocol: as §1, §2

T47D [4] = assay: Western blot of phospho-histone H2Ax induction; format: cell-based; settings: 72 hours, 1000 nM FTI vs DMSO, densitometry
Protocol: as §1, §2

MiaPaca [5] = assay: Western blot of phospho-histone H2Ax induction; format: cell-based; settings: 72 hours, 1000 nM FTI vs DMSO, densitometry
Protocol: as §1, §2

SNB75 [6] = assay: Western blot of phospho-histone H2Ax induction; format: cell-based; settings: 72 hours, 1000 nM FTI vs DMSO, densitometry
Protocol: as §1, §2

LNCap [7] = assay: Western blot of phospho-histone H2Ax induction; format: cell-based; settings: 72 hours, 1000 nM FTI vs DMSO, densitometry
Protocol: as §1, §2

MDA-435 = assay: Western blot of phospho-histone H2Ax induction; format: cell-based; settings: 72 hours, 1000 nM FTI vs DMSO, densitometry
Protocol: as §1, §2

DU145 [8] = assay: Western blot of phospho-histone H2Ax induction; format: cell-based; settings: 72 hours, 1000 nM FTI vs DMSO, densitometry
Protocol: as §1, §2

HT29 [9] = assay: Western blot of phospho-histone H2Ax induction; format: cell-based; settings: 72 hours, 1000 nM FTI vs DMSO, densitometry
Protocol: as §1, §2

SNB19 [10] = assay: Western blot of phospho-histone H2Ax induction; format: cell-based; settings: 72 hours, 1000 nM FTI vs DMSO, undetectable basal level
Protocol: as §1, §2

DLD-1 [11] = assay: Western blot of phospho-histone H2Ax induction; format: cell-based; settings: 72 hours, 1000 nM FTI vs DMSO, densitometry
Protocol: as §1, §2

SKOV3 [12] = assay: Western blot of phospho-histone H2Ax induction; format: cell-based; settings: 72 hours, 1000 nM FTI vs DMSO, densitometry
Protocol: as §1, §2

TOV112D [13] = assay: Western blot of phospho-histone H2Ax induction; format: cell-based; settings: 72 hours, 1000 nM FTI vs DMSO, undetectable basal level
Protocol: as §1, §2

Panc1 [14] = assay: Western blot of phospho-histone H2Ax induction; format: cell-based; settings: 72 hours, 1000 nM FTI vs DMSO
Protocol: as §1, §2

MCF7 = assay: Soft agar growth assay (colony area); format: cell-based, human; set-up: key to Cells designated sensitive (S) or resistant (R) to lonafarnib: sensitive (S); resistant (R); settings: MCF7, breast
Protocol: (§3) Cells were grown in soft agar and the IC50 for lonafarnib was determined. Cells were designated sensitive (S) or resistant (R). The IC50 value was determined by comparing colony areas of the cell lines exposed to the various doses of FTI. IC50 values were calculated with the XLfit program (idbs; Guildford, United Kingdom).
(§4) Growth assays. Soft agar assays were performed in 6-well dishes by seeding 10,000-20,000 cells in each well. Cells were plated in top 0.35% low melting point agarose in DMEM:F12 with 10% fetal bovine serum over a bottom 0.6% agarose feeding layer. Cells were grown in the presence of lonafarnib for 14 days and colonies were stained with 1 mg/ml MIT (dimethylthiazol-diphenyl-terrazolium bromide) in PBS. The plates were scanned and the colony area was determined as the sum of the areas stained by MTT.

AsPc1 [15] = assay: Soft agar growth assay (colony area); format: cell-based; set-up: key to Cells designated sensitive (S) or resistant (R) to lonafarnib: sensitive (S); resistant (R); settings: AsPc1, pancreas
Protocol: as §3, §4

A2780 [16] = assay: Soft agar growth assay (colony area); format: cell-based; set-up: key to Cells designated sensitive (S) or resistant (R) to lonafarnib: sensitive (S); resistant (R); settings: A2780, ovarian
Protocol: as §3, §4

Colo205 [17] = assay: Soft agar growth assay (colony area); format: cell-based; set-up: key to Cells designated sensitive (S) or resistant (R) to lonafarnib: sensitive (S); resistant (R); settings: Colo205, colon
Protocol: as §3, §4

T47D [18] = assay: Soft agar growth assay (colony area); format: cell-based; set-up: key to Cells designated sensitive (S) or resistant (R) to lonafarnib: sensitive (S); resistant (R); settings: breast
Protocol: as §3, §4

MiaPaca [19] = assay: Soft agar growth assay (colony area); format: cell-based; set-up: key to Cells designated sensitive (S) or resistant (R) to lonafarnib: sensitive (S); resistant (R); settings: pancreas
Protocol: as §3, §4

SNB75 [20] = assay: Soft agar growth assay (colony area); format: cell-based; set-up: key to Cells designated sensitive (S) or resistant (R) to lonafarnib: sensitive (S); resistant (R); settings: SNB75, glioma
Protocol: as §3, §4

LNCap [21] = assay: Soft agar growth assay (colony area); format: cell-based; set-up: key to Cells designated sensitive (S) or resistant (R) to lonafarnib: sensitive (S); resistant (R); settings: prostate
Protocol: as §3, §4

MDA435 = assay: Soft agar growth assay (colony area); format: cell-based; set-up: key to Cells designated sensitive (S) or resistant (R) to lonafarnib: sensitive (S); resistant (R); settings: MDA435, breast
Protocol: as §3, §4

DU145 [22] = assay: Soft agar growth assay (colony area); format: cell-based; set-up: key to Cells designated sensitive (S) or resistant (R) to lonafarnib: sensitive (S); resistant (R); settings: DU145, prostate
Protocol: as §3, §4

HT29 [23] = assay: Soft agar growth assay (colony area); format: cell-based; set-up: key to Cells designated sensitive (S) or resistant (R) to lonafarnib: sensitive (S); resistant (R); settings: HT29, colon
Protocol: as §3, §4

SNB19 [24] = assay: Soft agar growth assay (colony area); format: cell-based; set-up: key to Cells designated sensitive (S) or resistant (R) to lonafarnib: sensitive (S); resistant (R); settings: SNB19, glioma
Protocol: as §3, §4

DLD-1 [25] = assay: Soft agar growth assay (colony area); format: cell-based; set-up: key to Cells designated sensitive (S) or resistant (R) to lonafarnib: sensitive (S); resistant (R); settings: DLD-1, colon
Protocol: as §3, §4

SKOV3 [26] = assay: Soft agar growth assay (colony area); format: cell-based; set-up: key to Cells designated sensitive (S) or resistant (R) to lonafarnib: sensitive (S); resistant (R); settings: SKOV3, ovarian
Protocol: as §3, §4

TOV112D [27] = assay: Soft agar growth assay (colony area); format: cell-based; set-up: key to Cells designated sensitive (S) or resistant (R) to lonafarnib: sensitive (S); resistant (R); settings: ovarian
Protocol: as §3, §4

Panc1 [28] = assay: Soft agar growth assay (colony area); format: cell-based; set-up: key to Cells designated sensitive (S) or resistant (R) to lonafarnib: sensitive (S); resistant (R); settings: Panc1, pancreas
Protocol: as §3, §4

[29] = Homo sapiens, 336 h, 14 days, read-out: Lonafarnib IC50

## NC(=O)N1CCC(CC(=O)N2CCC(C3c4ncc(Br)cc4CCc4cc(Cl)cc(Br)c43)CC2)CC1 (single isomer, unassigned) [inactive enantiomer of lonafarnib]
Sensitive cell lines
  phosphorylation of histone-H2Ax upon treatment: does not induce

## NC(=O)N1CCC(CC(=O)N2CCC([C@H]3c4ncc(Br)cc4CCc4cc(Cl)cc(Br)c43)CC2)CC1 [Lonafarnib, lonafarnib]
MCF-7
  phospho-histone H2Ax expression upon treatment: induced to detectable levels
AsPc1 [1]
  induction of phospho-histone H2Ax (difference in OD values): 1 fold
A2780 [2]
  phospho-histone H2Ax expression upon treatment: induced to detectable levels
Colo205 [3]
  induction of phos-histone H2Ax upon treatment: no detectable induction
T47D [4]
  induction of phospho-histone H2Ax (difference in OD values): 1 fold
MiaPaca [5]
  induction of phospho-histone H2Ax: 2.3 fold
SNB75 [6]
  induction of phospho-histone H2Ax (difference in OD values): 1 fold
LNCap [7]
  induction of phospho-histone H2Ax: 2.2 fold
MDA-435
  induction of phospho-histone H2Ax: 6.5 fold
DU145 [8]
  induction of phospho-histone H2Ax (difference in OD values): 1 fold
HT29 [9]
  induction of phospho-histone H2Ax (difference in OD values): 1 fold
SNB19 [10]
  phospho-histone H2Ax expression upon treatment: induced to detectable levels
DLD-1 [11]
  induction of phospho-histone H2Ax: 4.3 fold
SKOV3 [12]
  induction of phospho-histone H2Ax (difference in OD values): 1 fold
TOV112D [13]
  phospho-histone H2Ax expression upon treatment: induced to detectable levels
Panc1 [14]
  induction of phos-histone H2Ax upon treatment: no detectable induction
MCF7; [29]
  IC50: 10 nM
MCF7
  Cells designated sensitive (S) or resistant (R) to lonafarnib: (S)
AsPc1 [15]
  Cells designated sensitive (S) or resistant (R) to lonafarnib: (R)
AsPc1 [15]; [29]
  IC50: 1000 nM
A2780 [16]
  Cells designated sensitive (S) or resistant (R) to lonafarnib: (S)
A2780 [16]; [29]
  IC50: 80 nM
Colo205 [17]
  Cells designated sensitive (S) or resistant (R) to lonafarnib: (S)
Colo205 [17]; Homo sapiens, COLO 205, 336 h, 14 days, read-out: Lonafarnib IC50
  IC50: 330 nM
T47D [18]; [29]
  IC50: 1800 nM
T47D [18]
  Cells designated sensitive (S) or resistant (R) to lonafarnib: (R)
MiaPaca [19]; Homo sapiens, MIA PaCa-2, 336 h, 14 days, read-out: Lonafarnib IC50
  IC50: 240 nM
MiaPaca [19]
  Cells designated sensitive (S) or resistant (R) to lonafarnib: (S)
SNB75 [20]; Homo sapiens, SNB-75, 336 h, 14 days, read-out: Lonafarnib IC50
  IC50: > 3000 nM
SNB75 [20]
  Cells designated sensitive (S) or resistant (R) to lonafarnib: (R)
LNCap [21]; [29]
  IC50: 10 nM
LNCap [21]
  Cells designated sensitive (S) or resistant (R) to lonafarnib: (S)
MDA435; 336 h, 14 days, read-out: Lonafarnib IC50
  IC50: 350 nM
MDA435
  Cells designated sensitive (S) or resistant (R) to lonafarnib: (S)
DU145 [22]
  Cells designated sensitive (S) or resistant (R) to lonafarnib: (R)
DU145 [22]; Homo sapiens, DU-145, 336 h, 14 days, read-out: Lonafarnib IC50
  IC50: 1600 nM
HT29 [23]
  Cells designated sensitive (S) or resistant (R) to lonafarnib: (R)
HT29 [23]; Homo sapiens, HT-29, 336 h, 14 days, read-out: Lonafarnib IC50
  IC50: 940 nM
SNB19 [24]; Homo sapiens, SNB-19, 336 h, 14 days, read-out: Lonafarnib IC50
  IC50: 230 nM
SNB19 [24]
  Cells designated sensitive (S) or resistant (R) to lonafarnib: (S)
DLD-1 [25]
  Cells designated sensitive (S) or resistant (R) to lonafarnib: (S)
DLD-1 [25]; [29]
  IC50: 320 nM
SKOV3 [26]; Homo sapiens, SK-OV-3, 336 h, 14 days, read-out: Lonafarnib IC50
  IC50: 2000 nM
SKOV3 [26]
  Cells designated sensitive (S) or resistant (R) to lonafarnib: (R)
TOV112D [27]; [29]
  IC50: 100 nM
TOV112D [27]
  Cells designated sensitive (S) or resistant (R) to lonafarnib: (S)
Panc1 [28]; Homo sapiens, PANC-1, 336 h, 14 days, read-out: Lonafarnib IC50
  IC50: 440 nM
Panc1 [28]
  Cells designated sensitive (S) or resistant (R) to lonafarnib: (S)
